Several values for one entry are separate records, joined by “and”; a condition that tells them apart may be missing. Equal entries are not always repeated. Where two headings read alike, the source gives them in different places.
How the values were obtained:
Treponema denticola = assay: MBC of Hyg A against Treponema denticola strains; type: cell-based; conditions: for MBC: Treponema denticola
[1] = system: Streptococcus salivarius ATCC13419; assay: MBC of Hyg A against S. salivarius; type: cell-based
[2] = system: Fusobacterium nucleatum (ATCC 25586); assay: MBC of Hyg A against F. nucleatum ATCC 25586; type: cell-based; conditions: for MBC: ATCC25586
[3] = system: Treponema pallidum pallidum Chicago strain; assay: T. pallidum susceptibility assay, co-culture with Sf1Ep cells, tp0574 (T47) qPCR after 7 days; type: cell-based; conditions: for Mean T47 copies/μL, Avg. / Mean T47 copies/μL, experimental values: 7 days; for Mean T47 copies/μL, Avg.: average of 8 replicates; for Mean T47 copies/μL, experimental values: replicate wells
[4] = system: Treponema pallidum pallidum Chicago strain; assay: Treated treponemes seeded onto no-antibiotic plate, 7 more days, T47 qPCR (treponemicidal activity); type: cell-based; conditions: for Mean T47 copies/μL, Avg. / Mean T47 copies/μL, Expt. values: seeded on no antibiotic plate; for Mean T47 copies/μL, Avg.: average; for Mean T47 copies/μL, Expt. values: replicate wells
[5] = system: Treponema pallidum pallidum SS14 strain; assay: T. pallidum susceptibility assay, co-culture with Sf1Ep cells, tp0574 (T47) qPCR after 7 days; type: cell-based; conditions: for Mean T47 copies/μL, Average / Mean T47 copies/μL, experimental values: 7 days; for Mean T47 copies/μL, Average: average of 8 replicates; for Mean T47 copies/μL, experimental values: replicate wells
SF1Ep cells = assay: Cytotoxicity assay, Cell Proliferation Reagent WST-1; type: cell-based, rabbit; conditions: day 7; any concentration tested (0.03-3.84 μg/mL)
Description: Cytotoxicity assay was performed according to the Cell Proliferation Reagent WST-1 protocol (Attached; Roche, Basel, Switzerland). Absorbance was measured after 1 hour incubation with the reagent.

[6] = pre-treated with Hygromycin A 0.03 μg/ml
[7] = pre-treated with Hygromycin A 0.06 μg/ml
[8] = pre-treated with Hygromycin A 0.12 μg/ml
[9] = pre-treated with Hygromycin A 0.24 μg/ml
[10] = pre-treated with Hygromycin A 0.48 μg/ml
[11] = pre-treated with Hygromycin A 0.96 μg/ml
[12] = pre-treated with Hygromycin A 1.92 μg/ml
[13] = pre-treated with Hygromycin A 3.84 μg/ml

CC(=O)[C@H]1O[C@@H](Oc2ccc(/C=C(\C)C(=O)N[C@@H]3[C@H](O)[C@@H](O)[C@H]4OCO[C@H]4[C@@H]3O)cc2O)[C@@H](O)[C@@H]1O [Hyg A, Hygromycin A]
MBC (Treponema denticola; T. denticola OTK, experiment 2, read-out: MBC (μg/ml) 2): 1 µg/mL | MBC (Treponema denticola; T. denticola SP44, experiment 1, read-out: MBC (μg/ml) 1): 5 µg/mL | MBC (Treponema denticola; T. denticola SP44, experiment 2, read-out: MBC (μg/ml) 2): 2 µg/mL | MBC (Treponema denticola; T. denticola US Trep, experiment 1, read-out: MBC (μg/ml) 1): 1 µg/mL | MBC (Treponema denticola; T. denticola US Trep, experiment 2, read-out: MBC (μg/ml) 2): 1 µg/mL | ratio of MBC/MIC (Treponema denticola; average for all T. denticola strains): 2.3 | MIC:MBC ratio ([1]; S. salivarius 13419): 10 | MBC ([1]; Streptococcus salivarius ATCC13419, read-out: MBC): 10 µg/mL | MBC ([1]; Streptococcus salivarius, ATCC13419, S. salivarius 13419, experiment 1, read-out: MBC (μg/ml) 1): 10 µg/mL | MBC ([1]; Streptococcus salivarius, ATCC13419, S. salivarius 13419, experiment 2, read-out: MBC (μg/ml) 2): 10 µg/mL | MBC ([2]; Fusobacterium nucleatum ATCC 25586, read-out: MBC): ~1 µg/mL | MIC:MBC ratio ([2]; F. nucleatum 25586): 1.0 | MBC ([2]; Fusobacterium nucleatum, F. nucleatum 25586, experiment 1, read-out: MBC (μg/ml) 1): 1 µg/mL | MBC ([2]; Fusobacterium nucleatum, F. nucleatum 25586, experiment 2, read-out: MBC (μg/ml) 2): 1 µg/mL | lowest concentration effective against growth (no significant difference to higher concentrations) ([3]; Chicago strain, ANOVA p<0.05): 0.12 µg/mL | Mean T47 copies/μL, Avg. ([3]; Hyg A 0.03 μg/ml): 7184 copies/μL | Mean T47 copies/μL, experimental values ([3]; Hyg A 0.03 μg/ml): 2531 copies/μL and 7304 copies/μL and 8369 copies/μL and 7552 copies/μL and 6189 copies/μL and 9263 copies/μL and 8429 copies/μL and 7834 copies/μL | Mean T47 copies/μL, Avg. ([3]; Hyg A 0.06 μg/ml): 1814 copies/μL | Mean T47 copies/μL, experimental values ([3]; Hyg A 0.06 μg/ml): 1336 copies/μL and 1882 copies/μL and 1716 copies/μL and 2225 copies/μL and 1815 copies/μL and 2044 copies/μL and 2022 copies/μL and 1476 copies/μL | Mean T47 copies/μL, Avg. ([3]; Hyg A 0.12 μg/ml): 674 copies/μL | Mean T47 copies/μL, experimental values ([3]; Hyg A 0.12 μg/ml): 449 copies/μL and 775 copies/μL and 689 copies/μL and 776 copies/μL and 788 copies/μL and 670 copies/μL and 704 copies/μL and 545 copies/μL | Mean T47 copies/μL, Avg. ([3]; Hyg A 0.24 μg/ml): 576 copies/μL | Mean T47 copies/μL, experimental values ([3]; Hyg A 0.24 μg/ml): 360 copies/μL and 447 copies/μL and 513 copies/μL and 890 copies/μL and 775 copies/μL and 636 copies/μL and 565 copies/μL and 424 copies/μL | Mean T47 copies/μL, Avg. ([3]; Hyg A 0.48 μg/ml): 457 copies/μL | Mean T47 copies/μL, experimental values ([3]; Hyg A 0.48 μg/ml): 341 copies/μL and 475 copies/μL and 462 copies/μL and 614 copies/μL and 548 copies/μL and 509 copies/μL and 425 copies/μL and 280 copies/μL | Mean T47 copies/μL, Avg. ([3]; Hyg A 0.96 μg/ml): 397 copies/μL | Mean T47 copies/μL, experimental values ([3]; Hyg A 0.96 μg/ml): 271 copies/μL and 393 copies/μL and 520 copies/μL and 528 copies/μL and 402 copies/μL and 418 copies/μL and 372 copies/μL and 273 copies/μL | Mean T47 copies/μL, Avg. ([3]; Hyg A 1.92 μg/ml): 451 copies/μL | Mean T47 copies/μL, experimental values ([3]; Hyg A 1.92 μg/ml): 301 copies/μL and 422 copies/μL and 453 copies/μL and 556 copies/μL and 585 copies/μL and 546 copies/μL and 464 copies/μL and 279 copies/μL | Mean T47 copies/μL, Avg. ([3]; Hyg A 3.84 μg/ml): 493 copies/μL | Mean T47 copies/μL, experimental values ([3]; Hyg A 3.84 μg/ml): 324 copies/μL and 470 copies/μL and 612 copies/μL and 487 copies/μL and 485 copies/μL and 532 copies/μL and 618 copies/μL and 412 copies/μL | concentration with treponemicidal activity ([4]; Chicago strain seeded onto no-antibiotic control plate): ≥ 0.12 µg/mL | Mean T47 copies/μL, Avg. [4, 6]: 14552 copies/μL | Mean T47 copies/μL, Expt. values [4, 6]: 10276 copies/μL and 18338 copies/μL and 20335 copies/μL and 9952 copies/μL | Mean T47 copies/μL, Avg. [4, 7]: 1000 copies/μL | Mean T47 copies/μL, Expt. values [4, 7]: 744 copies/μL and 560 copies/μL and 2087 copies/μL and 892 copies/μL | Mean T47 copies/μL, Avg. [4, 8]: 28 copies/μL | Mean T47 copies/μL, Expt. values [4, 8]: 13 copies/μL and 19 copies/μL and 39 copies/μL and 22 copies/μL | Mean T47 copies/μL, Avg. [4, 9]: 32 copies/μL | Mean T47 copies/μL, Expt. values [4, 9]: 17 copies/μL and 41 copies/μL and 22 copies/μL and 52 copies/μL | Mean T47 copies/μL, Avg. [4, 10]: 26 copies/μL | Mean T47 copies/μL, Expt. values [4, 10]: 0 copies/μL and 32 copies/μL (2×) and 23 copies/μL and 22 copies/μL | Mean T47 copies/μL, Avg. [4, 11]: 24 copies/μL | Mean T47 copies/μL, Expt. values [4, 11]: 14 copies/μL and 23 copies/μL and 31 copies/μL and 27 copies/μL and 7 copies/μL | Mean T47 copies/μL, Avg. [4, 12]: 23 copies/μL | Mean T47 copies/μL, Expt. values [4, 12]: 28 copies/μL and 8 copies/μL and 23 copies/μL and 36 copies/μL and 34 copies/μL | Mean T47 copies/μL, Avg. [4, 13]: 27 copies/μL | Mean T47 copies/μL, Expt. values [4, 13]: 37 copies/μL and 24 copies/μL and 27 copies/μL and 41 copies/μL and 13 copies/μL | Mean T47 copies/μL, Average ([5]; Hyg A 0.03 μg/ml): 2768 copies/μL | Mean T47 copies/μL, Average ([5]; Hyg A 0.06 μg/ml): 916 copies/μL | Mean T47 copies/μL, experimental values ([5]; Hyg A 0.06 μg/ml): 713 copies/μL and 883 copies/μL and 851 copies/μL and 1260 copies/μL | Mean T47 copies/μL, Average ([5]; Hyg A 0.12 μg/ml): 737 copies/μL | Mean T47 copies/μL, experimental values ([5]; Hyg A 0.12 μg/ml): 372 copies/μL and 629 copies/μL and 710 copies/μL and 787 copies/μL and 926 copies/μL and 951 copies/μL and 965 copies/μL and 552 copies/μL | Mean T47 copies/μL, Average ([5]; Hyg A 0.24 μg/ml): 516 copies/μL | Mean T47 copies/μL, experimental values ([5]; Hyg A 0.24 μg/ml): 510 copies/μL and 491 copies/μL and 572 copies/μL and 587 copies/μL and 564 copies/μL and 600 copies/μL and 441 copies/μL and 360 copies/μL | Mean T47 copies/μL, Average ([5]; Hyg A 0.48 μg/ml): 426 copies/μL | Mean T47 copies/μL, experimental values ([5]; Hyg A 0.48 μg/ml): 327 copies/μL and 435 copies/μL and 503 copies/μL and 508 copies/μL and 487 copies/μL and 453 copies/μL and 342 copies/μL and 352 copies/μL | Mean T47 copies/μL, Average ([5]; Hyg A 0.96 μg/ml): 319 copies/μL | Mean T47 copies/μL, experimental values ([5]; Hyg A 0.96 μg/ml): 150 copies/μL and 307 copies/μL and 435 copies/μL and 361 copies/μL and 405 copies/μL and 327 copies/μL and 299 copies/μL and 268 copies/μL | Mean T47 copies/μL, Average ([5]; Hyg A 1.92 μg/ml): 323 copies/μL | Mean T47 copies/μL, Average ([5]; Hyg A 3.84 μg/ml): 275 copies/μL | lowest concentration effective against growth (no significant difference to higher concentrations) ([5]; SS14 strain, ANOVA p<0.05): 1.92 µg/mL | toxicity to SF1Ep cells (WST-1) (SF1Ep cells): not toxic
